Molecules are shown by their SMILES. Where “and” joins values, the source holds several entries; their conditions need not be identical. Identical values can stand only once.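 Interpolation was linear, between the two tested concentrations surrounding the appropriate level; five concentrations were tested over 48 hours in 96-well plates. Here, GI50 denotes the concentration required for 50% inhibition of growth. TGI is the concentration that stops growth completely.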

This note sets out measurements from PubChem BioAssay (NCI).

Test systems include CCRF-CEM leukemia; M14 melanoma; NCI-H23 lung; OVCAR-3 ovarian; OVCAR-4 ovarian; OVCAR-8 ovarian; PC-3 prostate; RPMI-8226 leukemia; SNB-19 CNS; UACC-257 melanoma.
Assay in all cases: inhibition of tumour cell growth, NCI panel, 48 h

Turning to `CCOC(=O)c1c(NN2CCN(CC(F)(F)F)CC2)oc(/C=C2\C=Nc3ncccc32)c1O`, the GI50 in the experiment on CCRF-CEM leukemia is 6.81 µM; in the experiment with M14 melanoma it was 4.77 µM; in the experiment on NCI-H23 lung, 7 µM; with OVCAR-3 ovarian, 4.06 µM; with OVCAR-4 ovarian, 6.17 µM; in the experiment with OVCAR-8 ovarian it was 4.14 µM. The GI50 in the experiment with PC-3 prostate is 4.04 µM; in the experiment with RPMI-8226 leukemia it was 4.25 µM; in the experiment with SNB-19 CNS it was 20.7 µM; in the experiment on UACC-257 melanoma, 6.45 µM. For the same molecule, the TGI in the experiment on CCRF-CEM leukemia was more than 100 µM; in the experiment on M14 melanoma it was 24.4 µM; in the experiment with NCI-H23 lung it was 21.7 µM; in the experiment with OVCAR-3 ovarian, 19.4 µM; in the experiment with OVCAR-4 ovarian it was 26.4 µM; in the experiment on OVCAR-8 ovarian, 20.6 µM. Besides, the TGI in the experiment with PC-3 prostate is 21.4 µM; in the experiment on RPMI-8226 leukemia it was 20.7 µM; with SNB-19 CNS it was more than 100 µM; in the experiment on UACC-257 melanoma, 25.1 µM.
`O=CN/C=C/c1ccccc1`: the TGI in the experiment with CCRF-CEM leukemia, in the experiment with M14 melanoma, with NCI-H23 lung, in the experiment with OVCAR-3 ovarian, with OVCAR-4 ovarian and in the experiment with OVCAR-8 ovarian was more than 100 µM each time. For the same molecule, the TGI in the experiment with PC-3 prostate, with RPMI-8226 leukemia, with SNB-19 CNS and in the experiment with UACC-257 melanoma was more than 100 µM each time.
Take `CC(=O)O[C@@H]1c2c(c3c(=O)c4cccc(O)c4c(=O)c=3c2=[N+]=[N-])[C@H](OC(C)=O)[C@@H](OC(C)=O)[C@]1(C)O`: the TGI is 0.0632 µM with CCRF-CEM leukemia; 0.992 µM and 0.357 µM in the experiment with M14 melanoma; 1.77 µM and 1.59 µM in the experiment on NCI-H23 lung; 1.23 µM and 1.4 µM in the experiment with OVCAR-3 ovarian; 4.32 µM and 2.16 µM in the experiment with OVCAR-4 ovarian; 0.77 µM and 0.461 µM with OVCAR-8 ovarian. Besides, the TGI was 1.14 µM and 1 µM with PC-3 prostate; 0.361 µM and 0.394 µM in the experiment with RPMI-8226 leukemia; 2.35 µM and 3.51 µM in the experiment with SNB-19 CNS; 1.4 µM and 0.815 µM in the experiment on UACC-257 melanoma. The GI50 was 0.293 µM in the experiment with M14 melanoma; 0.411 µM with NCI-H23 lung; 0.407 µM in the experiment with OVCAR-3 ovarian; 0.117 µM with OVCAR-8 ovarian; 0.236 µM with PC-3 prostate; 0.689 µM with SNB-19 CNS. Also, the GI50 in the experiment on UACC-257 melanoma was 0.295 µM.
Regarding `NC(=O)c1cn(C2CC(O)C(CO)O2)c2ncnc(N)c12` (stereo unspecified), the GI50 is 0.0888 µM with CCRF-CEM leukemia; 3.12 µM in the experiment with M14 melanoma; 2.5 µM in the experiment on NCI-H23 lung; 4.09 µM with OVCAR-3 ovarian; 6.26 µM in the experiment on OVCAR-4 ovarian; 2.09 µM in the experiment on OVCAR-8 ovarian. The GI50 with PC-3 prostate was 1.57 µM; in the experiment with RPMI-8226 leukemia, 27.7 µM; with SNB-19 CNS, 7 µM; in the experiment with UACC-257 melanoma it was 11 µM. Also, the TGI is more than 100 µM with CCRF-CEM leukemia; 22.6 µM in the experiment with M14 melanoma; 18.8 µM in the experiment with NCI-H23 lung; 19.6 µM in the experiment with OVCAR-3 ovarian; more than 100 µM with OVCAR-4 ovarian; 17.9 µM in the experiment on OVCAR-8 ovarian. For the same molecule, the TGI in the experiment with PC-3 prostate is more than 35.4 µM; in the experiment on RPMI-8226 leukemia, more than 100 µM; in the experiment with SNB-19 CNS, 45.5 µM; in the experiment with UACC-257 melanoma, more than 63.4 µM.
For the molecule `Clc1ccc(-c2cnc3c(-c4ccnc(N5CCNCC5)c4)cnn3c2)cc1`, the GI50 is 2.07 µM in the experiment on CCRF-CEM leukemia; 2 µM with M14 melanoma; 1.99 µM in the experiment with NCI-H23 lung; 1.96 µM in the experiment on OVCAR-3 ovarian; 1.61 µM with OVCAR-4 ovarian; 2.21 µM in the experiment with OVCAR-8 ovarian. In addition, the GI50 was 1.85 µM in the experiment with PC-3 prostate, 1.86 µM in the experiment with RPMI-8226 leukemia, 2.02 µM with SNB-19 CNS and 2.08 µM in the experiment on UACC-257 melanoma. Further, the TGI with CCRF-CEM leukemia was 5.13 µM; in the experiment on M14 melanoma, 3.46 µM; in the experiment with NCI-H23 lung it was 3.66 µM; with OVCAR-3 ovarian, 3.42 µM; in the experiment with OVCAR-4 ovarian it was 3.09 µM; in the experiment on OVCAR-8 ovarian, 4.31 µM. The TGI stood at 5.72 µM in the experiment on PC-3 prostate, 4.05 µM with RPMI-8226 leukemia, 4.03 µM in the experiment with SNB-19 CNS and 3.82 µM with UACC-257 melanoma.
For `CN1CCc2ccccc2C1Cc1ccccc1NC(=O)c1sc2ccccc2c1Cl` (stereo unspecified), the TGI with CCRF-CEM leukemia, with M14 melanoma, in the experiment with NCI-H23 lung, in the experiment with OVCAR-3 ovarian, in the experiment with OVCAR-4 ovarian and with OVCAR-8 ovarian was more than 100 µM in each case. For the same molecule, the TGI in the experiment with PC-3 prostate, with RPMI-8226 leukemia, with SNB-19 CNS and in the experiment on UACC-257 melanoma was more than 100 µM in each case.
On to `CC[C@]12CN3CCc4c([nH]c5ccccc45)[C@@](C(=O)OC)(c4cc5c(cc4OC)N(C)[C@H]4[C@@](O)(C(=O)OC)[C@H](OC(C)=O)[C@]6(CC)C=CCN7CC[C@]54[C@@H]76)CC(C3)[C@H]1O2` (stereo partly specified), for which the GI50 in the experiment with CCRF-CEM leukemia was 0.116 µM; in the experiment on M14 melanoma it was 0.239 µM; in the experiment on NCI-H23 lung, 0.205 µM; in the experiment on OVCAR-3 ovarian, 0.0445 µM; with OVCAR-4 ovarian it was 0.327 µM; with OVCAR-8 ovarian it was 0.273 µM. Further, the GI50 with PC-3 prostate is 0.222 µM; with RPMI-8226 leukemia it was 0.138 µM; in the experiment with SNB-19 CNS, 0.214 µM; in the experiment on UACC-257 melanoma, 0.161 µM. The TGI in the experiment with CCRF-CEM leukemia is more than 50 µM; in the experiment with M14 melanoma, 25.1 µM; in the experiment with NCI-H23 lung, more than 68.1 µM; with OVCAR-4 ovarian, more than 100 µM; in the experiment on OVCAR-8 ovarian, more than 100 µM; in the experiment with PC-3 prostate, more than 100 µM. Also, the TGI in the experiment on RPMI-8226 leukemia, in the experiment on SNB-19 CNS and in the experiment with UACC-257 melanoma was more than 100 µM each time.
Take `COc1ccc2c(n1)Sc1nc3ccccc3nc1N2`: the TGI with CCRF-CEM leukemia was more than 100 µM; with M14 melanoma, more than 100 µM; in the experiment with NCI-H23 lung, more than 100 µM; in the experiment with OVCAR-3 ovarian it was more than 100 µM; in the experiment with OVCAR-4 ovarian it was more than 100 µM; with OVCAR-8 ovarian, 57 µM. Also, the TGI in the experiment on PC-3 prostate, with RPMI-8226 leukemia, in the experiment on SNB-19 CNS and in the experiment with UACC-257 melanoma was more than 100 µM each time.
For `COc1cccc2c1C(=O)c1c(O)c3c(c(O)c1C2=O)C[C@](O)(C(=O)CO)C[C@H]3O[C@@H]1C[C@@H](NC(=O)CCCN(C)C2(c3ccc(F)cc3)CC3CCC2C3)[C@H](O)[C@@H](C)O1` (stereo partly specified), the GI50 is 0.927 µM in the experiment with CCRF-CEM leukemia; 0.925 µM in the experiment on M14 melanoma; 0.829 µM in the experiment on NCI-H23 lung; 0.852 µM with OVCAR-3 ovarian; 0.844 µM in the experiment on OVCAR-4 ovarian; 0.913 µM in the experiment on OVCAR-8 ovarian. The GI50 is 1.18 µM in the experiment with PC-3 prostate, 0.946 µM in the experiment with RPMI-8226 leukemia, 0.9 µM with SNB-19 CNS and 0.984 µM in the experiment on UACC-257 melanoma. Further, the TGI in the experiment on CCRF-CEM leukemia came to 3.29 µM; with M14 melanoma, 1.73 µM; in the experiment with NCI-H23 lung it was 1.71 µM; in the experiment with OVCAR-3 ovarian, 1.71 µM; with OVCAR-4 ovarian it was 1.61 µM; in the experiment with OVCAR-8 ovarian, 2.36 µM. Besides, the TGI is 3.11 µM in the experiment on PC-3 prostate, 2.23 µM with RPMI-8226 leukemia, 2.19 µM in the experiment on SNB-19 CNS and 1.73 µM in the experiment with UACC-257 melanoma.
